We go through eleven molecules from ChEMBL document CHEMBL1128729, “Alpha- and beta-adrenoceptors: from the gene to the clinic. 2. Structure-activity relationships and therapeutic applications” (J Med Chem, 1995).

SMILES strings stand for the structures.

Test [1] addresses T1, Alpha-1A adrenergic receptor (Homo sapiens, UniProt P35348).
T1 sequence (P35348 whole entry): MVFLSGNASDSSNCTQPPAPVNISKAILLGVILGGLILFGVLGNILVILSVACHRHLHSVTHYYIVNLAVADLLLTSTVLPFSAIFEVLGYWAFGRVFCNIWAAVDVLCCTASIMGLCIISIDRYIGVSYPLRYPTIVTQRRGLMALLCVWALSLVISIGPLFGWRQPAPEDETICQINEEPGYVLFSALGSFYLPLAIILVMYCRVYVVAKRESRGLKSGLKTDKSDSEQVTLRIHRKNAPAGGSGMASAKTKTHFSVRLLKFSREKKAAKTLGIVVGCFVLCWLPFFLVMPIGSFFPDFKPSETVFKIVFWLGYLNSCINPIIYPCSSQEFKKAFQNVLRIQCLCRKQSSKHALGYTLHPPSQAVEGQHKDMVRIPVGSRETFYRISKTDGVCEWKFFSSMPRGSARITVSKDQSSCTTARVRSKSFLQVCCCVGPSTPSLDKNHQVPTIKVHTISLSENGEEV
Description: biochemical.
Description: Inhibition of [3H]prazosin binding to human Alpha-1A adrenergic receptor expressed in CHO cells

The target of test [2] is T2, Alpha-1B adrenergic receptor (Homo sapiens, UniProt P35368).
T2 sequence (P35368 whole entry): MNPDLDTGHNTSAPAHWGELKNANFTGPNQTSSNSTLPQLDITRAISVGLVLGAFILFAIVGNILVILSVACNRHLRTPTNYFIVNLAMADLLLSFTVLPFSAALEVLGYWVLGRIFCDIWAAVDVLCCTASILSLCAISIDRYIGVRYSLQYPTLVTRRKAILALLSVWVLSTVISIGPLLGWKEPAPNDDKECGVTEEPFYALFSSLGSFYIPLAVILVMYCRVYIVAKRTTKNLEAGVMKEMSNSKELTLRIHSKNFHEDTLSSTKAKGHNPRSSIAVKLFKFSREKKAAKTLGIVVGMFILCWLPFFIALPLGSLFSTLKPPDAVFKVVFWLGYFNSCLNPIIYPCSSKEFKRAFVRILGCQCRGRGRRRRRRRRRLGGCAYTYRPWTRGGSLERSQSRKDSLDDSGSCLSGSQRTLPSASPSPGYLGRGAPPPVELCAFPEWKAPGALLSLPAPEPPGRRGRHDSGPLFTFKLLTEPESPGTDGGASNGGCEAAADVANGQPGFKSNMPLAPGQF
Description: biochemical.
Description: Inhibition of [3H]prazosin binding to human Alpha-1B adrenergic receptor expressed in CHO cells

For the next test, the species on record is Cavia porcellus. In words: Ability to block B-HT 920-induced inhibition of inotropic response to field stimulation in superfused guinea pig atrium. It counts as functional. The note with it: Cardiac atrium.
The species entered for a further test is Canis familiaris. In words: Ability to block B-HT 920-induced contraction in canine saphenous vein. It counts as functional. The note with it: Canis lupus familiaris.
Test [3] addresses T3, Alpha-1D adrenergic receptor (Homo sapiens, UniProt P25100).
T3 sequence (P25100 whole entry): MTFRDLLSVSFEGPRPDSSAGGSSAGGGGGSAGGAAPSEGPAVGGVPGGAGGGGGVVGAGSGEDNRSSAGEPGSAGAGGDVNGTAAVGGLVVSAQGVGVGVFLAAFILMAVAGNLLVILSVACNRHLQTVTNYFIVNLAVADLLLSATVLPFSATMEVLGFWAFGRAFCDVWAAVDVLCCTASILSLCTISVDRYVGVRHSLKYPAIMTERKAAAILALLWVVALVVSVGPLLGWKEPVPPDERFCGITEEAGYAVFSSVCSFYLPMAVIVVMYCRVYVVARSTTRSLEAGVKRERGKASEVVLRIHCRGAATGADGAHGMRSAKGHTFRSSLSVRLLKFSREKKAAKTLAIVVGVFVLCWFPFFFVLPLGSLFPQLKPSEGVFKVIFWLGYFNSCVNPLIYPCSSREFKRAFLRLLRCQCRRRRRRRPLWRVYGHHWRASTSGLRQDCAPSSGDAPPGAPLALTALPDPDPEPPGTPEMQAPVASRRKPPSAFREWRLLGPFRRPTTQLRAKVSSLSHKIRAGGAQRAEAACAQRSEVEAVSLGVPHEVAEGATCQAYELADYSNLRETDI
Description: biochemical.
Description: Inhibition of [3H]prazosin binding to human Alpha-1D adrenergic receptor expressed in CHO cells

For a further test, the species on record is Oryctolagus cuniculus. Description: Ability to block norepinephrine-induced contraction in rabbit aorta. It counts as functional.
Test [4] has as its target T4, Alpha-2C adrenergic receptor (Homo sapiens, UniProt P18825).
T4 sequence (P18825 whole entry): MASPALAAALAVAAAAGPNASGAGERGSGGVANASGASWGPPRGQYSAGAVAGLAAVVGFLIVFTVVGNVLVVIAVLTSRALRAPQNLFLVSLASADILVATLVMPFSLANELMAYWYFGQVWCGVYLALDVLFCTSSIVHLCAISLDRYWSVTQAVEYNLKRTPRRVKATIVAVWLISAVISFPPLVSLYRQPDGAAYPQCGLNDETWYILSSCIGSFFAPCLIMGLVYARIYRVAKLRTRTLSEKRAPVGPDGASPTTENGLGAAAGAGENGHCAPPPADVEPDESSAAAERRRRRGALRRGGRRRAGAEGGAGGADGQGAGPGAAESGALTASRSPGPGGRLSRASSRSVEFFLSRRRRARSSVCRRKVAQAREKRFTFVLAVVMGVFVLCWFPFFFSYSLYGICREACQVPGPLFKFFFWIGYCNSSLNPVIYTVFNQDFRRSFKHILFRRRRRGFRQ
Description: biochemical.

Test [5] concerns the target T5, Alpha-2A adrenergic receptor (Homo sapiens, UniProt P08913).
T5 sequence (P08913 whole entry): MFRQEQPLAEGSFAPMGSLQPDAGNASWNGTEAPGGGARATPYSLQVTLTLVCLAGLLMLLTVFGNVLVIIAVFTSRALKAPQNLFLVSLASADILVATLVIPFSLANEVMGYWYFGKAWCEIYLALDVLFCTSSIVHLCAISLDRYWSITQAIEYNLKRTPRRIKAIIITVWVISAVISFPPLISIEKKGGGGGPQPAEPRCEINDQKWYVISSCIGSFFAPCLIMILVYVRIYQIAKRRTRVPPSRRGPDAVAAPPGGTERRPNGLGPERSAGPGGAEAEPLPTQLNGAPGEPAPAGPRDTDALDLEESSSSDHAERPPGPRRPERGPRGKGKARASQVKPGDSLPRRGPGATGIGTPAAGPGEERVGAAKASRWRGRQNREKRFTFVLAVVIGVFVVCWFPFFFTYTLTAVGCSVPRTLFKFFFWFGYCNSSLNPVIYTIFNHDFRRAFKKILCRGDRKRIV
Description: biochemical.

The target of test [6] is T6, Alpha-2B adrenergic receptor (Homo sapiens, UniProt P18089).
T6 sequence (P18089 whole entry): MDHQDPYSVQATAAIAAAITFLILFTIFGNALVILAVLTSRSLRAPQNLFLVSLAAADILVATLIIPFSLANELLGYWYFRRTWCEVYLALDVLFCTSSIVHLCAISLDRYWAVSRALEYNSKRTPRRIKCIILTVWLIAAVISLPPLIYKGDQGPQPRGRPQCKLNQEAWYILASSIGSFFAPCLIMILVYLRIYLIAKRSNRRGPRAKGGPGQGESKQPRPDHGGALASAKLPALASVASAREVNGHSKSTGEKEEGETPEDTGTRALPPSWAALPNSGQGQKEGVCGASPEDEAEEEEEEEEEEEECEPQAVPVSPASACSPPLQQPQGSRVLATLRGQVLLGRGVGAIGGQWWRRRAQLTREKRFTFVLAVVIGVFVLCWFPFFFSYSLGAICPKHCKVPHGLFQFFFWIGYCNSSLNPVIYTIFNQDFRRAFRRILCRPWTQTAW
In words: biochemical. It counts as cell-based, CHO.

For test [7], the target named is Voltage-dependent L-type calcium channel subunit alpha-1C (Rattus norvegicus, UniProt P22002). Description: biochemical.
Description: Inhibition of [3H]nitrendipine binding to membrane homogenates of rat cardiac muscle.
Test [8] addresses Beta-1 adrenergic receptor (Cavia porcellus, UniProt B0FL73). In words: Effective dose required to stimulate contractions in isolated guinea pig atrium. It counts as functional, tissue-based, Cardiac atrium.
Test [9] deals with Beta-2 adrenergic receptor (Cavia porcellus, UniProt Q8K4Z4). In words: Effective dose for relaxation of guinea pig trachea.
A further test has as its target T7, Monoamine oxidase (Homo sapiens, UniProt P21397+P27338).
T7 sequence (P21397 whole entry): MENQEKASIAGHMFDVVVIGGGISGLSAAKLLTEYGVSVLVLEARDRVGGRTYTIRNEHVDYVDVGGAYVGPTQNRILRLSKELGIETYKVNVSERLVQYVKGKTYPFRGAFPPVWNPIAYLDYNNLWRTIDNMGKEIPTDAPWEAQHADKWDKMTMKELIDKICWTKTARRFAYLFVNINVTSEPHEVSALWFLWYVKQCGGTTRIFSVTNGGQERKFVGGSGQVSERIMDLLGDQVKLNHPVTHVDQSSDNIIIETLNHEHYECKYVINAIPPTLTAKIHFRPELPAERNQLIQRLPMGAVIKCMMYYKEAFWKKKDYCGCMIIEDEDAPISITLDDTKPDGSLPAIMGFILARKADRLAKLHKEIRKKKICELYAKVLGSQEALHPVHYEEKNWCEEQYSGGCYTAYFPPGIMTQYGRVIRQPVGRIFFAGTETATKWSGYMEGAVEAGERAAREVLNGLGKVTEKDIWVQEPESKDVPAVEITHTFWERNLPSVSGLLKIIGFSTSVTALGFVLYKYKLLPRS
T7 sequence (P27338 whole entry): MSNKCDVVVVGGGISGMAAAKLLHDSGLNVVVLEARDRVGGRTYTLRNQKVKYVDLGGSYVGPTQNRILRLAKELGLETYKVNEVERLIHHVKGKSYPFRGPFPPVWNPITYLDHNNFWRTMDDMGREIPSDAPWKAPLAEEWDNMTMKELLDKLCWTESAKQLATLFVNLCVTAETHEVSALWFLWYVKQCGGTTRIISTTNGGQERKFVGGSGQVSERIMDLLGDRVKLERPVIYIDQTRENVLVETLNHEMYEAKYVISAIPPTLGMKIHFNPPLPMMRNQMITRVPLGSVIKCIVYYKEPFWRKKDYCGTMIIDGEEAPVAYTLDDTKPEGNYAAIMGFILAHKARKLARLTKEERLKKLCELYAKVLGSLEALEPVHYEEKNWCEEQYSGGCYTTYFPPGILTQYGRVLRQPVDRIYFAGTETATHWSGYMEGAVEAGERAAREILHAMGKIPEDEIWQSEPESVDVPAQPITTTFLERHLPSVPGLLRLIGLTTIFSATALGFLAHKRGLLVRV
In words: Binding affinity for imidazoline receptor I-2. It counts as protein assay.

Chain of Voltage-dependent L-type calcium channel subunit alpha-1C (P22002 whole entry): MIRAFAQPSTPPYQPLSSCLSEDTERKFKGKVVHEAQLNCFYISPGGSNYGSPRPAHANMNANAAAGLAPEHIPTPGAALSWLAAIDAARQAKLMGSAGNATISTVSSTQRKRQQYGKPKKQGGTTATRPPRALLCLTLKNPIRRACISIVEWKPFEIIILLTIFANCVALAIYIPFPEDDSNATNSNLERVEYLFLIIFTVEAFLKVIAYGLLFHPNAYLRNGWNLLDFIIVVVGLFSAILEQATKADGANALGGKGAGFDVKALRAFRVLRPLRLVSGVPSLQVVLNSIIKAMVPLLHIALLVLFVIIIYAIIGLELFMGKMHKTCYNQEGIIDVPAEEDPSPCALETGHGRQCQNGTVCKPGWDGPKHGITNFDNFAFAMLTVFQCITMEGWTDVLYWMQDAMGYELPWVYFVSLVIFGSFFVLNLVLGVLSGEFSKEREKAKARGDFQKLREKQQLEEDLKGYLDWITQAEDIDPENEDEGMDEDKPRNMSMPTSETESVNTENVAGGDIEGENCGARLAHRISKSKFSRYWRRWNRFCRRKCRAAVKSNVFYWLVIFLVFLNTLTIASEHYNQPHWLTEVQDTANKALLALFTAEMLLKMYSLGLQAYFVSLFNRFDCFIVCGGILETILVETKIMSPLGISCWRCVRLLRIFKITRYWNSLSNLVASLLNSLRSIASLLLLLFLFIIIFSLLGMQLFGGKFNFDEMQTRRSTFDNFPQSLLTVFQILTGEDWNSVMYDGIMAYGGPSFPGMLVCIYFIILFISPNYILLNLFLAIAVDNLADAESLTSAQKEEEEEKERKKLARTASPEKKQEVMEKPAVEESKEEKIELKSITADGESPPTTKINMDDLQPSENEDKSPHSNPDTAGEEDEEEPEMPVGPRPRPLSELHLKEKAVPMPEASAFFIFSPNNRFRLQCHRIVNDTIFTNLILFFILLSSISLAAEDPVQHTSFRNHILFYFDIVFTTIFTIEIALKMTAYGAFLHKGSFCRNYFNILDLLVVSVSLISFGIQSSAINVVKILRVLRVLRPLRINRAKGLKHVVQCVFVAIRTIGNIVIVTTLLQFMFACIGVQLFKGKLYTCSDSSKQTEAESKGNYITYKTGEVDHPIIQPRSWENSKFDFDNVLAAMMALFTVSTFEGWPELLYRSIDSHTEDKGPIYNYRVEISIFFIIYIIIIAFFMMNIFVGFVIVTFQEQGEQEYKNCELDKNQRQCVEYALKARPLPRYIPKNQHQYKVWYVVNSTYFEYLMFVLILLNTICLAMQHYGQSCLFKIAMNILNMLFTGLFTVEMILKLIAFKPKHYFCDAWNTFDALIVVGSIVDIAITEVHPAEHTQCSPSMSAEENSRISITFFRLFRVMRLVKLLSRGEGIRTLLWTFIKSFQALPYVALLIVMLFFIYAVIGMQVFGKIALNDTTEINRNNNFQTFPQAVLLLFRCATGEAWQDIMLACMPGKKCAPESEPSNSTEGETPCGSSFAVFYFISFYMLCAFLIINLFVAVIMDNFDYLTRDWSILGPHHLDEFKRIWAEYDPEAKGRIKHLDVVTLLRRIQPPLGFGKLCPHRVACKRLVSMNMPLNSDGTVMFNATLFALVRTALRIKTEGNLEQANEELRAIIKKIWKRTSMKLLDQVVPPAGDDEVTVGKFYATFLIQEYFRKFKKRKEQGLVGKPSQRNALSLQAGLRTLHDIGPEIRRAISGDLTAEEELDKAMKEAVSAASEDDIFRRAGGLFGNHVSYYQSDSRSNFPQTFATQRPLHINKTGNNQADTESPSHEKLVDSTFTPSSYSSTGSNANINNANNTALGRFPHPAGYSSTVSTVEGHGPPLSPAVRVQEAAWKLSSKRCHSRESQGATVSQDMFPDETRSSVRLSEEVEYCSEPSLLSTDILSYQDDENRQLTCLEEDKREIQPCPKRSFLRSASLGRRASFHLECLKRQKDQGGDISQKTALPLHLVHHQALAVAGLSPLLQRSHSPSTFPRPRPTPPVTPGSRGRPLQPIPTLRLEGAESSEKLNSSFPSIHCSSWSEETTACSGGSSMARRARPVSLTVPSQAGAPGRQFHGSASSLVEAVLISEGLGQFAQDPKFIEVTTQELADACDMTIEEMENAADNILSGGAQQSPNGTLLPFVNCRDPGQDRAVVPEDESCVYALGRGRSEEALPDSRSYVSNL
Chain of Beta-1 adrenergic receptor (B0FL73 whole entry): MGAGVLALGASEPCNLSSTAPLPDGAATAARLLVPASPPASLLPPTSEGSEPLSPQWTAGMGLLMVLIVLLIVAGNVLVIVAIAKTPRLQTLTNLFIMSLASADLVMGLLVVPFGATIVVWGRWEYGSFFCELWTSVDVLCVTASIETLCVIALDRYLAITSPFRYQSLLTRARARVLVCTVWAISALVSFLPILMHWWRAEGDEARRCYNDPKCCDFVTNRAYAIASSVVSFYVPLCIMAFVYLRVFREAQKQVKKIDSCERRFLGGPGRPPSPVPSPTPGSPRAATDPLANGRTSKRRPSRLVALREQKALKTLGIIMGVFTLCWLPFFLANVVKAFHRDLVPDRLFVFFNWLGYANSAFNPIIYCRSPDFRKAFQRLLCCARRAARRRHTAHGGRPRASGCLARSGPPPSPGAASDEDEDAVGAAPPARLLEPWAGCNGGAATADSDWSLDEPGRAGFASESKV
Chain of Beta-2 adrenergic receptor (Q8K4Z4 whole entry): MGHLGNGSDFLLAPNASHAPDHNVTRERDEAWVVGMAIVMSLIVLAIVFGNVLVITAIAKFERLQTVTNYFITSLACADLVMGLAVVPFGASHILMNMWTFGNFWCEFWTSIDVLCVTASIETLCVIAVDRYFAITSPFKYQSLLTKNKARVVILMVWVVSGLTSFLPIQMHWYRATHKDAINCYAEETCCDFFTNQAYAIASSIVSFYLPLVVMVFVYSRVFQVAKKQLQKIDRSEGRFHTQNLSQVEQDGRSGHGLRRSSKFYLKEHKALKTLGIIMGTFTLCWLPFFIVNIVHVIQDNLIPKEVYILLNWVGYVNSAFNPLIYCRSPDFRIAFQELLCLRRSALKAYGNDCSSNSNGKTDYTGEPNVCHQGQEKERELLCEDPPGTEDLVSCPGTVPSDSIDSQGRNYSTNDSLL

On to `CC(C)=CCOc1ccc(Cl)c2c1CCN(C)CC2`, for which the Ki in test [1] was found to be 33 nM; in test [2] it was 87 nM; in test [3] it was 33 nM. Besides, the Kb is greater than 3000 nM in the test listed under Cavia porcellus, 76 nM in the test listed under Canis familiaris and 150 nM in the test listed under Oryctolagus cuniculus.

With `CN1CCc2c(Cl)ccc3oc(Br)c(c23)C1`, the Ki was 3300 nM in test [1]; 783 nM in [2]; 28 nM in test [4]; 54 nM in test [5]; 72 nM in [3]; 14 nM in test [6]. For the same molecule, the Kb is greater than 3000 nM in the test listed under Cavia porcellus, 40 nM in the test listed under Canis familiaris and greater than 1000 nM in the test listed under Oryctolagus cuniculus.

Turning to `CN1CCc2cccc(Cl)c2CC1`, the inhibition constant (Ki) in test [1] was 449 nM; in test [2], 485 nM; in test [5], 9.4 nM; in test [3], 126 nM; in test [6] it was 16 nM. In addition, the Kb turned out to be 17 nM in the test listed under Cavia porcellus, 42 nM in the test filed under Canis familiaris and 600 nM in the test filed under Oryctolagus cuniculus.

Consider `CCc1sc2ccc(Cl)c3c2c1CN(C)CC3`, for which the Ki came out at 58 nM in test [1]; 15 nM in test [2]; 35 nM in test [4]; 31 nM in test [5]; 1.2 nM in [3]; 15 nM in test [6]. In addition, the Kb in the test listed under Cavia porcellus is greater than 3000 nM; in the test listed under Canis familiaris, 84 nM; in the test filed under Oryctolagus cuniculus, 56 nM.

As to `C=Cc1sc2ccc(Cl)c3c2c1CN(C)CC3`, the Ki in test [1] stood at 36 nM; in [2], 23 nM; in test [4] it was 21 nM; in test [5], 24 nM; in test [3] it was 1.6 nM; in test [6], 3.4 nM. The Kb in the test filed under Cavia porcellus was greater than 3000 nM; in the test listed under Canis familiaris, 29 nM; in the test filed under Oryctolagus cuniculus it was 25 nM.

For `CC1=C(C(N)=O)C(c2ccc([N+](=O)[O-])cc2)C(C(=O)NCCCN2CCC(c3ccccc3)(c3ccccc3)CC2)=C(C)N1` (stereo unspecified), the Ki in [7] was greater than 10 nM.

For the molecule `CNC(=O)C1=C(C)NC(C)=C(C(=O)NCCCN2CCC(c3ccccc3)(c3ccccc3)CC2)C1c1ccc([N+](=O)[O-])cc1` (stereo unspecified), the Ki in test [1] was 3.1 nM; in [7], greater than 5000 nM.

Take `COC(=O)C1=C(C)NC(C)=C(C(=O)NCCCN2CCC(c3ccccc3)(c3ccccc3)CC2)C1c1cccc([N+](=O)[O-])c1` (stereo unspecified): the results for the Ki in test [1] and in test [7] were 0.4 nM and 30 nM, respectively.

Take `CNC[C@H](O)c1ccc(O)c(O)c1` (stereo in doubt; (+)) [EPINEPHRINE]: the EC50 in test [8] and in [9] was 436 nM in each case.

On to `CNC[C@H](O)c1ccc(O)c(O)c1` (stereo in doubt; (-)) [EPINEPHRINE], for which the EC50 in [8] and in test [9] was 15 nM each time.

`c1ccc2c(c1)OCC(C1=NCCN1)O2` (stereo unspecified) [IDAZOXAN] gave a Ki on Monoamine oxidase of less than 10 nM.

One may read the Ki as the equilibrium dissociation constant of an inhibitor or competing ligand from its target. Usually EC50 stands for the concentration at which the effect is half-maximal. A lower EC50 goes with greater potency.
